The values that follow come from patent publication US9119805B2, “Therapy and prevention of problem drinking” (THE UNIVERSITY OF SYDNEY, priority 2009, dated 2015).

“Also recorded” adds a separate entry of the source.

The test system of assay [1] is P rats. In words: Lickometer choice of Vodka Cruiser versus 3% sucrose after acute oxytocin in alcohol-exposed P rats (Example 1). The format is in vivo, rat. From the text: P rats (8 female and 8 male P rats) were provided by Professor Andrew Lawrence at the Howard Florey Institute, Melbourne, Australia. The animals were of adolescent age (i.e., 28 days-old) on arrival at the animal house. Animals were housed in same-sex cages at a density of 3-4 rats per cage. Over the following 2 months, animals received intermittent exposure to various alcoholic beverages in their home cages e.g., white wine, red wine, beer, Vodka Cruiser, Bacardi Breezer, but were alcohol-free for the month preceding testing.
Testing occurred in a lickometer apparatus. Rats were placed in a small metal cage where they have a choice of two tubes for supply of liquids, wherein the tube were designed such that every third lick at one tube delivered a small drop (0.07 ml) of 3% (w/v) sucrose solution, and every third lick at the other tube delivered a small amount of alcohol-containing beverage, in particular Vodka Cruiser (Raspberry Flavor), containing 5.0% (w/v) ethanol. Rats were exposed daily to 70 min sessions in the lickometer until their intake of sucrose and/or alcohol and preferences for these beverages had stabilized.
One-half of the rats being tested were injected intra-peritoneally (I/P) with a single dosage of 0.3 mg/kg oxytocin, administered 10 min before their daily drinking session. The following day, these animals received a normal baseline test session with no further oxytocin dosing. The following day, one-half of the animals were administered I/P with 1 mg/kg oxytocin 10 min before the test session. Normal drinking sessions then continued for a further 4 days. During the same period, the other one-half of the rats were administered a placebo (vehicle) lacking oxytocin. Animals receiving the placebo were treated with oxytocin in exactly the same sequence as the treatment group, commencing one week after the start of testing. A final test to determine alcohol intake and alcohol preference was conducted after 55 days, to determine whether or not oxytocin induced lasting changes in drinking behavior.

The subject of assay [2] is alcohol-dependent adults and non-dependent problem drinkers. Put plainly: Human Study 1: intranasal oxytocin, stress and alcohol-related cues. The following applies: during presentation of stress and alcohol cues, versus placebo. The format is in vivo. The protocol:
The underlying mechanisms of intranasal oxytocin during exposure to stress and alcohol related cues in adult alcohol-dependent and adult non-dependent problem drinkers are determined.
In particular, at least twenty male and female adults reporting alcohol dependence according to the Diagnostic and Statistical Manual of Mental Disorders, Fourth Edition (DSM-IV) as determined by the Structured Clinical Interview for the DSM-IV (SCID-IV) are recruited from the community to participate in a laboratory based investigation on the role of oxytocin in stress-related alcohol craving. […]
Subjects returning to the Brain and Mind Research Institute on the afternoon of the final day of testing are evaluated. Bloods and saliva are taken, and plasma oxytocin and cortisol levels and saliva cortisol are determined and compared to baseline levels before commencement of therapy. […] Changes in mood, drinking behavior and neuropsychology are evaluated for both groups by comparison with baseline evaluations. Changes in smoking behavior are evaluated by FTND testing and comparison with baseline evaluations. HR and BP records over the period and at cessation are also determined and compared to baseline levels before commencement of therapy. […]

Assay [3] has as its system P rats. In words: Lickometer alcohol preference in alcohol-naïve P rats pre-treated with 10 daily oxytocin injections (Example 2). The format is in vivo, rat. How it is done:
P rats (8 female and 6 male P rats) of adult age (i.e., 150 days) were used in this study. Animals were maintained as described in example 1, however they received no alcohol prior to testing.
One-half of the rats (n=4 female and n=3 male) were given 10 injections of 1 mg/kg oxytocin (a single I/P injection per day for a total of 10 days). The other half of the rats received equivalent injections of placebo/vehicle lacking oxytocin. Two weeks later, the alcohol preferences of both sets of alcohol-naïve animals were tested. The same alcohol and alcohol-free solutions were employed as in example 1, and testing conditions were in the same lickometer apparatus. Testing in the lickometer (1×70 min session per day) continued for a total of 10 days during which time intake of sucrose and Vodka Cruiser were measured.

The mark [4] stands for this setting: acute oxytocin 0.3 and 1 mg/kg I/P, 10 min before 70 min session.

In the case of `CC[C@H](C)[C@@H]1NC(=O)[C@H](Cc2ccc(O)cc2)NC(=O)[C@@H](N)CSSC[C@@H](C(=O)N2CCC[C@H]2C(=O)N[C@@H](CC(C)C)C(=O)NCC(N)=O)NC(=O)[C@H](CC(N)=O)NC(=O)[C@H](CCC(N)=O)NC1=O` [oxytocin], the “duration of the reduction in alcohol preference and alcohol intake” value in assay [1] (P rats, after 1 mg/kg oxytocin) is on record as 7-8 weeks. Further, in assay [1] (setting [4]), the “intake of Vodka Cruiser (alcohol consumption)” value was “significant reduction; also recorded: reduced their alcohol consumption significantly” and the “intake of sucrose solution” value is on record as “significant reduction”. Besides, the “time intake of the alcoholic beverage remained suppressed” value in assay [1] (following oxytocin) is “at least 55 days”. Besides, in assay [1] (male and female P rats, 2 days following treatment, FIG. 1), the “reduction of baseline alcohol intake” value is “about 50%”. Moreover, the “reduction in alcohol consumption, comparison between the sexes” value in assay [1] (male versus female P rats) is “comparable between the sexes”. In addition, the “preference for alcohol (Vodka Cruiser versus 3% sucrose)” value in assay [1] (treated male and female P rats) is “shift towards a preference for alcohol-free solution; also recorded: reduced preference for alcohol”. Also, in assay [2], the anxiety and stress entry is “lower”; the “subjective craving for alcohol” value is “lower”. Also, the “alcohol intake and preference for alcohol” value in assay [3] (alcohol-naïve P rats, both sexes, repeated doses) is “reduced alcohol intake and preference for alcohol; also recorded: reduced significantly”. In assay [3] (male alcohol-naïve P rats, 10 x 1 mg/kg/day, final 4 days of testing), the “preference for Vodka Cruiser versus 3% sucrose solution” value is listed as “significantly reduced preference for Cruiser over sucrose”. Besides, in assay [3] (male oxytocin-treated rats relative to both female groups), the intake of sucrose entry is given as “higher”. Besides, in assay [3] (male oxytocin-treated rats versus the other groups), the “intake of Cruiser (alcohol)” value is listed as “less intake of alcohol; also recorded: lower”. For the same compound, the “reduced acquisition of alcohol preference, comparison between the sexes” value in assay [3] (males compared to females) is “greater in males compared to females”.
